Structures can show the parent of a compound that is named as a salt.
What was measured:
[1] = Non-hygroscopicity evaluation (water content by Karl-Fisher titrator after exposure to humid air); format: physicochemical; settings: for moisture absorption (in words): humid atmosphere of 95% relative humidity
Method: Then, the water content of the samples was measured using a Karl-Fisher titrator. In Table 4, the water content of an active ingredient is expressed as a percentage of water content by weight (weight %).

[2] = Stability to heat (storage at 60° C., residual proportion by HPLC); format: physicochemical; settings: for residual proportion of the initial level of active ingredient: 60° C.; for heat stability (in words): compared with sibutramine hydrochloride monohydrate
Method: (§1) The stability of an active ingredient used in a pharmaceutical composition to heat and light is a very important physical property during formulation into tablets and capsules and long-term storage. […] In detail, each compound was stored at 60° C. After 1, 2 and 4 weeks, the residual proportion of the initial level of an active ingredient was measured by high performance liquid chromatography (HPLC). Also, fluorescent light was radiated at 25° C. using a light stability test chamber suitable for the ICH guideline, and after 1, 2 and 4 weeks, the residual proportion of the initial level of an active ingredient was measured by HPLC.

[3] = Stability to light (fluorescent light at 25° C., ICH light stability chamber, residual proportion by HPLC); format: physicochemical; settings: for photostability (in words): compared with sibutramine hydrochloride monohydrate; for residual proportion of the initial level of active ingredient: fluorescent light, 25° C.
Method: as §1

mouse = settings: cited from earlier work
rat = settings: cited from earlier work
[4] = Solubility evaluation in distilled water and at several pH values; settings: 37 °C, thermodynamic from solid
[5] = 75% relative humidity at 25° C., 3 days
[6] = 95% relative humidity at 25° C., 1 week

Row | SMILES | water content (weight %) [1, 5] | water content (weight %) [1, 6] | water content (weight %) ([1]; Initial) | moisture absorption (in words) [1] | residual proportion of the initial level of active ingredient ([2]; 1 week) | residual proportion of the initial level of active ingredient ([2]; 2 weeks) | residual proportion of the initial level of active ingredient ([2]; 4 weeks) | residual proportion of the initial level of active ingredient ([2]; Initial) | heat stability (in words) [2] | photostability (in words) [3] | residual proportion of the initial level of active ingredient ([3]; 1 week) | residual proportion of the initial level of active ingredient ([3]; 2 weeks) | residual proportion of the initial level of active ingredient ([3]; 4 weeks) | residual proportion of the initial level of active ingredient ([3]; Initial) | other results
1 | CC(C)CC(N(C)C)C1(c2ccc(Cl)cc2)CCC1 (centres unmarked) [Sibutramine malonate, sibutramine malonate] | 0.02% | 0.03% | 0.03% | did not absorb moisture | 1.000 | 0.999 | 0.999 | 1.000 | equal to those of sibutramine hydrochloride monohydrate | equal to those of sibutramine hydrochloride monohydrate | 1.000 | 0.999 | 0.999 | 1.000 | 
2 | CC(C)CC(N(C)C)C1(c2ccc(Cl)cc2)CCC1 (centres unmarked) [Sibutramine oxalate, sibutramine oxalate] | 0.03% | 0.02% | 0.02% | did not absorb moisture | 1.000 | 0.999 | 0.999 | 1.000 | equal to those of sibutramine hydrochloride monohydrate | equal to those of sibutramine hydrochloride monohydrate | 1.000 | 0.999 | 0.999 | 1.000 | 
3 | Cl [HCl, hydrochloric acid] |  |  |  |  |  |  |  |  |  |  |  |  |  |  | LD50 in mouse (i.p.) (mouse): 40 mg/kg; LD50 in rat (oral) (rat): 900 mg/kg
4 | CC(C)CC(N(C)C)C1(c2ccc(Cl)cc2)CCC1 (centres unmarked) [Sibutramine HCl monohydrate, Sibutramine hydrochloride monohydrate, reference compound] |  |  |  |  | 1.000 | 0.999 | 0.999 | 1.000 |  |  | 1.000 | 0.999 |  | 1.000 | water content (weight %) ([1]; 75% relative humidity at 25° C., 3 days, hydrochloride monohydrate): 5.49%; water content (weight %) ([1]; 95% relative humidity at 25° C., 1 week, hydrochloride monohydrate): 5.5%; water content (weight %) ([1]; Initial, hydrochloride monohydrate): 5.49%; residual proportion of the initial level of active ingredient ([3]; 4 weeks, hydrochloride monohydrate): 0.998; solubility ([4]; pH 1.2, simulated gastric fluid): 13.4 mg/mL; solubility ([4]; pH 4, aqueous buffer): 9.58 mg/mL; solubility ([4]; pH 5.3, aqueous buffer): 6.58 mg/mL; solubility ([4]; pH 6.8, aqueous buffer): 23.1 mg/mL; solubility ([4]; pH 7.4, aqueous buffer): 9.2 mg/mL; solubility ([4]; distilled water, water): 26.2 mg/mL

From patent publication US7393977B2, “Dicarboxylic acid salt of sibutramine” (CJ Cheiljedang Corporation, priority 2005, dated 2008)
